According to PubChem BioAssay AID330 (DTP/NCI, 2004):
Values joined by “and” are separate entries in the source; they are usually repeats but may differ in a detail not shown here. Identical values can stand only once. Inconclusive results and toxic doses are left out.

Tested on: P388 leukemia ip, CD2F1 mice, survival T/C
Assay: NCI In Vivo Anticancer Drug Screen. Data for tumor model P388 Leukemia (intraperitoneal) in CD2F1 (CDF1) mice
Conditions: endpoint: median survival time, higher = longer survival
Procedure, shortened: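 Mice carrying the transplanted tumor received test compound or vehicle. Survival was recorded in each group, and the value is the treated-group measurement divided by that of the vehicle-treated control group.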

[1] = dose: 50.0 mg/kg/injection, schedule: Q01DX005 (ip), vehicle: Klucel (hydroxypropylcellulose) (HPC)
[2] = dose: 100.0 mg/kg/injection, schedule: Q01DX005 (ip), vehicle: Klucel (hydroxypropylcellulose) (HPC)
[3] = dose: 6.25 mg/kg/injection, schedule: Q01DX009 (ip), vehicle: water
[4] = dose: 12.5 mg/kg/injection, schedule: Q01DX009 (ip), vehicle: water
[5] = dose: 25.0 mg/kg/injection, schedule: Q01DX009 (ip), vehicle: water
[6] = dose: 50.0 mg/kg/injection, schedule: Q01DX009 (ip), vehicle: water
[7] = dose: 50.0 mg/kg/injection, schedule: Q01DX005 (ip), vehicle: saline with Tween-80
[8] = dose: 60.0 mg/kg/injection, schedule: Q01DX005 (ip), vehicle: saline with Tween-80
[9] = dose: 120.0 mg/kg/injection, schedule: Q01DX005 (ip), vehicle: saline with Tween-80
[10] = dose: 240.0 mg/kg/injection, schedule: Q01DX005 (ip), vehicle: saline with Tween-80
[11] = dose: 100.0 mg/kg/injection, schedule: Q04DX002 (ip), vehicle: saline
[12] = dose: 200.0 mg/kg/injection, schedule: Q04DX002 (ip), vehicle: saline
[13] = dose: 200.0 mg/kg/injection, schedule: Q01DX005 (ip), vehicle: Klucel (hydroxypropylcellulose) (HPC)
[14] = dose: 50.0 mg/kg/injection, schedule: Q01DX009 (ip), vehicle: saline
[15] = dose: 200.0 mg/kg/injection, schedule: Q01DX009 (ip), vehicle: saline

## CCOP(=O)(OCC)c1nc(Cl)nc(Cl)c1SC(F)(F)F
dose: 3.75 mg/kg/injection, schedule: Q01DX005 (ip), vehicle: saline with Tween-80
  T/C: 113 % of control
dose: 7.5 mg/kg/injection, schedule: Q01DX005 (ip), vehicle: saline with Tween-80
  T/C: 104 % of control
dose: 15.0 mg/kg/injection, schedule: Q01DX005 (ip), vehicle: saline with Tween-80
  T/C: 100 % of control

## O=C1c2ccccc2C(C2c3ccccc3C(=O)c3cc(Br)ccc32)c2ccc(Br)cc21 (stereo not drawn)
dose: 12.5 mg/kg/injection, schedule: Q01DX005 (ip), vehicle: Klucel (hydroxypropylcellulose) (HPC)
  T/C: 88 % of control
dose: 25.0 mg/kg/injection, schedule: Q01DX005 (ip), vehicle: Klucel (hydroxypropylcellulose) (HPC)
  T/C: 97 % of control
[1]
  T/C: 90 % of control
[2]
  T/C: 86 % of control

## CCCCOc1ccc(NN=O)cn1
dose: 3.12 mg/kg/injection, schedule: Q01DX009 (ip), vehicle: water
  T/C: 106 % of control
[3]
  T/C: 92 % of control
[4]
  T/C: 99 % of control
[5]
  T/C: 93 % of control
[6]
  T/C: 92 % of control and 97 % of control
dose: 100.0 mg/kg/injection, schedule: Q01DX009 (ip), vehicle: water
  T/C: 97 % of control
dose: 200.0 mg/kg/injection, schedule: Q01DX009 (ip), vehicle: water
  T/C: 101 % of control

## Cc1ccnc(Nc2nnc(Nc3cc(C)ccn3)c3ccccc23)c1
[7]
  T/C: 100 % of control
dose: 100.0 mg/kg/injection, schedule: Q01DX005 (ip), vehicle: saline with Tween-80
  T/C: 97 % of control
dose: 200.0 mg/kg/injection, schedule: Q01DX005 (ip), vehicle: saline with Tween-80
  T/C: 97 % of control

## COC(=O)C(=O)c1c(C(=O)OC)nc2[nH]n(-c3ccccc3)c(=O)c2c1-c1cccc2ccccc12
dose: 30.0 mg/kg/injection, schedule: Q01DX005 (ip), vehicle: saline with Tween-80
  T/C: 100 % of control and 110 % of control
[8]
  T/C: 98 % of control and 100 % of control
[9]
  T/C: 91 % of control and 94 % of control

## Clc1ccc(-c2nnc(-c3ccncc3)o2)c(Cl)c1
[8]
  T/C: 93 % of control
[9]
  T/C: 93 % of control
[10]
  T/C: 86 % of control

## CC/C(=N/N(C)C)C(=O)OC
[11]
  T/C: 95 % of control
[12]
  T/C: 100 % of control
dose: 400.0 mg/kg/injection, schedule: Q04DX002 (ip), vehicle: saline
  T/C: 98 % of control

## CCN(CC)Cc1cc(Nc2nc(/C=C/c3ccc(Cl)cc3)nc(Cl)c2-c2ccc(Cl)cc2)ccc1O
dose: 25.0 mg/kg/injection, schedule: Q01DX001 (ip), vehicle: suspension in saline
  T/C: 107 % of control
dose: 50.0 mg/kg/injection, schedule: Q01DX001 (ip), vehicle: suspension in saline
  T/C: 111 % of control
dose: 50.0 mg/kg/injection, schedule: Q01DX005 (ip), vehicle: saline
  T/C: 111 % of control
dose: 100.0 mg/kg/injection, schedule: Q01DX001 (ip), vehicle: saline
  T/C: 103 % of control
dose: 100.0 mg/kg/injection, schedule: Q01DX001 (ip), vehicle: suspension in saline
  T/C: 100 % of control and 108 % of control
dose: 100.0 mg/kg/injection, schedule: Q01DX005 (ip), vehicle: saline
  T/C: 116 % of control
dose: 200.0 mg/kg/injection, schedule: Q01DX001 (ip), vehicle: saline
  T/C: 103 % of control
dose: 200.0 mg/kg/injection, schedule: Q01DX001 (ip), vehicle: suspension in saline
  T/C: 108 % of control and 97 % of control
dose: 200.0 mg/kg/injection, schedule: Q01DX005 (ip), vehicle: saline
  T/C: 103 % of control
dose: 400.0 mg/kg/injection, schedule: Q01DX001 (ip), vehicle: saline
  T/C: 103 % of control
dose: 400.0 mg/kg/injection, schedule: Q01DX001 (ip), vehicle: suspension in saline
  T/C: 108 % of control and 87 % of control

## CN(CCO)CNC(=O)C1=C(O)C2(O)C(=O)C3=C(O)c4c(O)cccc4C(C)(O)C3CC2C(N(C)C)C1=O (stereo not drawn)
[1]
  T/C: 105 % of control
[2]
  T/C: 103 % of control
[13]
  T/C: 100 % of control

## COc1ccc(C(C)c2cc(N=NC(N)=O)c(OC)cc2O)cc1 (stereo not drawn)
dose: 12.5 mg/kg/injection, schedule: Q01DX005 (ip), vehicle: saline with Tween-80
  T/C: 94 % of control
dose: 25.0 mg/kg/injection, schedule: Q01DX005 (ip), vehicle: saline with Tween-80
  T/C: 90 % of control
[7]
  T/C: 90 % of control

## CCC[CH2][Hg][Cl]
dose: 3.3 mg/kg/injection, schedule: Q01DX009 (ip), vehicle: other
  T/C: 95 % of control
dose: 5.0 mg/kg/injection, schedule: Q01DX009 (ip), vehicle: other
  T/C: 100 % of control
dose: 7.5 mg/kg/injection, schedule: Q01DX009 (ip), vehicle: other
  T/C: 118 % of control

## O=C(O)O.[Eu]
[14]
  T/C: 95 % of control
[15]
  T/C: 93 % of control

## Cc1csc([NH-])n1.Cc1csc([NH-])n1.[Cl][Pt+2][Cl]
dose: 100.0 mg/kg/injection, schedule: Q01DX001 (sc), vehicle: olive oil, sesame oil, peanut oil
  T/C: 104 % of control
dose: 200.0 mg/kg/injection, schedule: Q01DX001 (sc), vehicle: olive oil, sesame oil, peanut oil
  T/C: 107 % of control
dose: 400.0 mg/kg/injection, schedule: Q01DX001 (sc), vehicle: olive oil, sesame oil, peanut oil
  T/C: 104 % of control

## C=COC(=O)C(Cc1ccc(OC)cc1)NC(=O)OCc1ccccc1 (stereo not drawn)
dose: 100.0 mg/kg/injection, schedule: Q04DX002 (ip), vehicle: Klucel (hydroxypropylcellulose) (HPC)
  T/C: 103 % of control
dose: 200.0 mg/kg/injection, schedule: Q04DX002 (ip), vehicle: Klucel (hydroxypropylcellulose) (HPC)
  T/C: 91 % of control
dose: 400.0 mg/kg/injection, schedule: Q04DX002 (ip), vehicle: Klucel (hydroxypropylcellulose) (HPC)
  T/C: 94 % of control

## O=[N+]([O-])c1cc(CN(CCO)CCO)c(O)c2ncccc12
[8]
  T/C: 104 % of control
[9]
  T/C: 109 % of control

## COc1cc(C=Nc2c[nH]c(=O)[nH]c2=O)ccc1O
[14]
  T/C: 93 % of control
dose: 100.0 mg/kg/injection, schedule: Q01DX009 (ip), vehicle: saline
  T/C: 96 % of control
[15]
  T/C: 98 % of control

## O=c1[nH]c(=O)n(C2CC(O)C(CS)O2)cc1F (stereo not drawn)
[1]
  T/C: 115 % of control
[13]
  T/C: 150 % of control and 159 % of control
dose: 400.0 mg/kg/injection, schedule: Q01DX005 (ip), vehicle: Klucel (hydroxypropylcellulose) (HPC)
  T/C: 186 % of control

## CNCC(=O)Nc1ccc(C2NC(=O)Cc3ccccc32)cc1 (stereo not drawn)
[11]
  T/C: 104 % of control
[12]
  T/C: 111 % of control

## Oc1ccccc1-c1cc(-c2ccccc2)nc(NCCCNc2nc(-c3ccccc3)cc(-c3ccccc3O)n2)n1
[1]
  T/C: 92 % of control
[2]
  T/C: 88 % of control
[13]
  T/C: 86 % of control

## Cc1ccc2c(c1)C1(SC(C)C(=O)N1c1ccc(I)cc1)C(=O)N2 (stereo not drawn)
[8]
  T/C: 103 % of control
[9]
  T/C: 94 % of control
[10]
  T/C: 91 % of control

## CC(C)(C)N=C(NC#N)Nc1cccnc1Cl
dose: 100.0 mg/kg/injection, schedule: Q04DX002 (ip), vehicle: saline with Tween-80
  T/C: 103 % of control
dose: 200.0 mg/kg/injection, schedule: Q04DX002 (ip), vehicle: saline with Tween-80
  T/C: 94 % of control
dose: 400.0 mg/kg/injection, schedule: Q04DX002 (ip), vehicle: saline with Tween-80
  T/C: 92 % of control

## Cc1cc2nc3[nH]c4ccccc4c3nc2cc1C
dose: 25.0 mg/kg/injection, schedule: Q01DX009 (ip), vehicle: suspension in saline
  T/C: 94 % of control
dose: 50.0 mg/kg/injection, schedule: Q01DX009 (ip), vehicle: suspension in saline
  T/C: 92 % of control
dose: 100.0 mg/kg/injection, schedule: Q01DX009 (ip), vehicle: suspension in saline
  T/C: 94 % of control
dose: 200.0 mg/kg/injection, schedule: Q01DX009 (ip), vehicle: suspension in saline
  T/C: 92 % of control

## COc1c(O)ccc2c1CCCCC2=O
dose: 100.0 mg/kg/injection, schedule: Q01DX009 (ip), vehicle: saline with Tween-80
  T/C: 103 % of control
dose: 200.0 mg/kg/injection, schedule: Q01DX009 (ip), vehicle: saline with Tween-80
  T/C: 110 % of control
dose: 400.0 mg/kg/injection, schedule: Q01DX009 (ip), vehicle: saline with Tween-80
  T/C: 106 % of control

## NC(=O)c1cncn1C1OCC(O)C(O)C1O (stereo not drawn)
dose: 60.0 mg/kg/injection, schedule: Q01DX005 (ip), vehicle: saline
  T/C: 96 % of control
dose: 120.0 mg/kg/injection, schedule: Q01DX005 (ip), vehicle: saline
  T/C: 94 % of control
dose: 240.0 mg/kg/injection, schedule: Q01DX005 (ip), vehicle: saline
  T/C: 91 % of control

## O=C1C2C3C=CC(O3)C2C(=O)N1O (stereo not drawn)
dose: 3.13 mg/kg/injection, schedule: Q01DX009 (ip), vehicle: water
  T/C: 102 % of control
[3]
  T/C: 112 % of control
[4]
  T/C: 121 % of control
[5]
  T/C: 118 % of control
[6]
  T/C: 105 % of control
